Test results reported in ChEMBL document CHEMBL3885861, “Open TG-GATES”.

Species: Rattus norvegicus
Assay: Open TG-GATES - Regimen: Daily Repeat
Format: toxicity, organism-based, Sprague-Dawley
Design: regimen Daily Repeat, gender Male, age 6 weeks
Conditions: in vivo, po, 10 mg/kg, route gavage, dose level Low; for APTT / Bas / Eos / Fbg / Hb / Ht / Lym / MCH / MCHC / MCV / Mono / Neu / PT / Plat / RBC / Ret / WBC: tissue Blood; for KIDNEY_L / KIDNEY_R / KIDNEY_TOTAL: tissue Kidney; for LIVER: tissue Liver; for A/G / ALP / ALT / AST / BUN / CRE / Ca / Cl / DBIL / GLC / IP / K / LDH / Na / PL / RALB / TBIL / TC / TG / TP / gamma-GTP: tissue Plasma

## CN(C)CCN(Cc1cccs1)c1ccccn1
72 h, time 3 day
  TERMINAL_BW: 219.5 g
  APTT: 21.1 s
  Bas: 0%
  Eos: 0.8%
  Fbg: 343 mg/dL
  Hb: 13 g/dL
  Ht: 39.1%
  Lym: 79%
  MCH: 21.6 pg
  MCHC: 33.2%
  MCV: 65 fL
  Mono: 1.6%
  Neu: 18%
  PT: 16 s
  Plat: 116.7 x10_4/uL
  RBC: 603.4 x10_4/ul
  Ret: 7%
  WBC: 85.5 x10_2/uL
  KIDNEY_L: 1 g
  KIDNEY_R: 1 g
  KIDNEY_TOTAL: 2 g
  LIVER: 10.9 g
  A/G: 1.1
  ALP: 1503.8 IU/L
  ALT: 43.2 IU/L
  AST: 72.2 IU/L
  BUN: 16.8 mg/dL
  CRE: 0.2 mg/dL
  Ca: 10.9 mg/dL
  Cl: 107 meq/L
  DBIL: 0 mg/dL
  GLC: 188.2 mg/dL
  IP: 7.8 mg/dL
  K: 4.2 meq/L
  LDH: 181 IU/L
  Na: 143.6 meq/L
  PL: 149.8 mg/dL
  RALB: 2.9 g/dL
  TBIL: 0.006 mg/dL
  TC: 80.6 mg/dL
  TG: 108.2 mg/dL
  TP: 5.6 g/dL
  gamma-GTP: 1.2 IU/L
[…], time 7 day
  TERMINAL_BW: 229.9 g
  APTT: 22.1 s
  Bas: 0%
  Eos: 1%
  Fbg: 323.4 mg/dL
  Hb: 13.7 g/dL
  Ht: 40.5%
  Lym: 82.8%
  MCH: 20.8 pg
  MCHC: 33.8%
  MCV: 61.6 fL
  Mono: 2%
  Neu: 13.2%
  PT: 16.4 s
  Plat: 120.4 x10_4/uL
  RBC: 658 x10_4/ul
  Ret: 4.8%
  WBC: 113.4 x10_2/uL
  KIDNEY_L: 1 g
  KIDNEY_R: 1 g
  KIDNEY_TOTAL: 2 g
  LIVER: 10.6 g
  A/G: 1.1
  ALP: 1638.2 IU/L
  ALT: 35.6 IU/L
  AST: 66.6 IU/L
  BUN: 18.6 mg/dL
  CRE: 0.2 mg/dL
  Ca: 10.4 mg/dL
  Cl: 108.8 meq/L
  DBIL: 0 mg/dL
  GLC: 174.6 mg/dL
  IP: 6.8 mg/dL
  K: 4.7 meq/L
  LDH: 183.8 IU/L
  Na: 144.2 meq/L
  PL: 129.6 mg/dL
  RALB: 3 g/dL
  TBIL: 0.008 mg/dL
  TC: 63.2 mg/dL
  TG: 109.2 mg/dL
  TP: 5.7 g/dL
  gamma-GTP: 1 IU/L
[…], time 14 day
  TERMINAL_BW: 284.8 g
  APTT: 21.3 s
  Bas: 0%
  Eos: 0.6%
  Fbg: 297.6 mg/dL
  Hb: 14.3 g/dL
  Ht: 42.1%
  Lym: 83.6%
  MCH: 20.8 pg
  MCHC: 34%
  MCV: 61.1 fL
  Mono: 1.6%
  Neu: 13.2%
  PT: 16.2 s
  Plat: 116 x10_4/uL
  RBC: 689.4 x10_4/ul
  Ret: 4.6%
  WBC: 120.5 x10_2/uL
  KIDNEY_L: 1.1 g
  KIDNEY_R: 1.2 g
  KIDNEY_TOTAL: 2.3 g
  LIVER: 12.3 g
  A/G: 1.1
  ALP: 1409 IU/L
  ALT: 39.4 IU/L
  AST: 68.6 IU/L
  BUN: 17.6 mg/dL
  CRE: 0.2 mg/dL
  Ca: 10.2 mg/dL
  Cl: 108.2 meq/L
  DBIL: 0.002 mg/dL
  GLC: 175.4 mg/dL
  IP: 6.7 mg/dL
  K: 4.2 meq/L
  LDH: 177.2 IU/L
  Na: 143.2 meq/L
  PL: 137.2 mg/dL
  RALB: 2.9 g/dL
  TBIL: 0.012 mg/dL
  TC: 71.8 mg/dL
  TG: 88.8 mg/dL
  TP: 5.6 g/dL
  gamma-GTP: 1 IU/L
[…], time 28 day
  TERMINAL_BW: 353.5 g
  APTT: 22.8 s
  Bas: 0%
  Eos: 1.2%
  Fbg: 307.8 mg/dL
  Hb: 15.3 g/dL
  Ht: 44.4%
  Lym: 78.8%
  MCH: 20.2 pg
  MCHC: 34.5%
  MCV: 58.6 fL
  Mono: 2.2%
  Neu: 17.2%
  PT: 15.8 s
  Plat: 96.3 x10_4/uL
  RBC: 758 x10_4/ul
  Ret: 2.6%
  WBC: 105 x10_2/uL
  KIDNEY_L: 1.2 g
  KIDNEY_R: 1.3 g
  KIDNEY_TOTAL: 2.5 g
  LIVER: 14.3 g
  A/G: 1.2
  ALP: 1369.6 IU/L
  ALT: 45.8 IU/L
  AST: 73.4 IU/L
  BUN: 20.4 mg/dL
  CRE: 0.2 mg/dL
  Ca: 10.3 mg/dL
  Cl: 107.6 meq/L
  DBIL: 0.004 mg/dL
  GLC: 189 mg/dL
  IP: 6.5 mg/dL
  K: 3.9 meq/L
  LDH: 183.6 IU/L
  Na: 143.2 meq/L
  PL: 142.6 mg/dL
  RALB: 3.2 g/dL
  TBIL: 0.026 mg/dL
  TC: 72.4 mg/dL
  TG: 111 mg/dL
  TP: 5.7 g/dL
  gamma-GTP: 1.4 IU/L
